Patent US8580709B2, “Plant growth regulation” (Syngenta Crop Protection, LLC, priority 2009, dated 2013)

What was measured:
Type in all cases: in vivo
Spring-barley Pasadena = assay: Plant growth regulation on cereals, greenhouse spray, visual shoot growth reduction; conditions: 13 days after application, growth stage 30-32, vs untreated control
Procedure: (§1) Plants were grown under greenhouse conditions and sprayed at growth stage 30-32 (start of stem elongation) of cereal plants with a boom sprayer. Trinexapac-ethyl (treatment A) was applied as Moddus® ME250 formulation, and Prohexadione-Ca (treatment B) was applied as Viviful® WG10 formulation with a standard flat fan nozzle at 200 l/ha spray volume. 13 days after application the plant growth reduction (% GR) of the shoot (leaves and stem) was evaluated visually compared to the untreated control. The expected plant growth reduction was calculated according to Colby (Colby 1967, Weeds 15, 20-22) and compared to evaluation data of sprayed plants.

Spring-wheat Lona = assay: as above; conditions: 13 days after application, growth stage 30-32, vs untreated control
Procedure: as §1

Winter-barley Hasso = assay: as above; conditions: 13 days after application, growth stage 30-32, vs untreated control
Procedure: as §1

Winter-wheat Arina = assay: as above; conditions: 13 days after application, growth stage 30-32, vs untreated control
Procedure: as §1

Corn ECO5133 = assay: Plant growth regulation on corn, greenhouse spray, visual shoot growth reduction; conditions: 33 days after application, growth stage 13, vs untreated control
Procedure: as §1, with “Corn plants of 4 different varieties” for “Plants”, “13 (3 leaves unfolded)” for “30-32 (start of stem elongation) of cereal plants”, “Trinexapac-ethyl” for “Trinexapac-ethyl (treatment A)”, “Prohexadion-Ca” for “Prohexadione-Ca (treatment B)”, “WG 10” for “WG10”, “33” for “13”

Corn LG22.65 = assay: as above; conditions: 33 days after application, growth stage 13, vs untreated control
Procedure: as §1, with “Corn plants of 4 different varieties” for “Plants”, “13 (3 leaves unfolded)” for “30-32 (start of stem elongation) of cereal plants”, “Trinexapac-ethyl” for “Trinexapac-ethyl (treatment A)”, “Prohexadion-Ca” for “Prohexadione-Ca (treatment B)”, “WG 10” for “WG10”, “33” for “13”

Corn Maeva = assay: as above; conditions: 33 days after application, growth stage 13, vs untreated control
Procedure: as §1, with “Corn plants of 4 different varieties” for “Plants”, “13 (3 leaves unfolded)” for “30-32 (start of stem elongation) of cereal plants”, “Trinexapac-ethyl” for “Trinexapac-ethyl (treatment A)”, “Prohexadion-Ca” for “Prohexadione-Ca (treatment B)”, “WG 10” for “WG10”, “33” for “13”

Corn Ronaldinio = assay: as above; conditions: 33 days after application, growth stage 13, vs untreated control
Procedure: as §1, with “Corn plants of 4 different varieties” for “Plants”, “13 (3 leaves unfolded)” for “30-32 (start of stem elongation) of cereal plants”, “Trinexapac-ethyl” for “Trinexapac-ethyl (treatment A)”, “Prohexadion-Ca” for “Prohexadione-Ca (treatment B)”, “WG 10” for “WG10”, “33” for “13”

With `CCOC(=O)C1CC(=O)C(=C(O)C2CC2)C(=O)C1` (stereo not shown) [A, Trinexapac-ethyl] the “% GR (plant growth reduction of the shoot)” value (Spring-barley Pasadena; 25 g a.i./ha) was 0.0%, the “% GR (plant growth reduction of the shoot)” value (Spring-barley Pasadena; 50 g a.i./ha) was 0.0% and the “% GR (plant growth reduction of the shoot)” value (Spring-wheat Lona; 25 g a.i./ha) was 1.7%. For the same molecule, the “% GR (plant growth reduction of the shoot)” value (Spring-wheat Lona; 50 g a.i./ha) was 3.3%, the “% GR (plant growth reduction of the shoot)” value (Winter-barley Hasso; 25 g a.i./ha) was 0.0% and the “% GR (plant growth reduction of the shoot)” value (Winter-barley Hasso; 50 g a.i./ha) was 5.0%. The “% GR (plant growth reduction of the shoot)” value (Winter-wheat Arina; 25 g a.i./ha) was 0.0%, the “% GR (plant growth reduction of the shoot)” value (Winter-wheat Arina; 50 g a.i./ha) was 5.0% and the “% GR (plant growth reduction of the shoot)” value (Corn ECO5133; 25 g a.i./ha) was 1.7%. For the same molecule, the “% GR (plant growth reduction of the shoot)” value (Corn ECO5133; 50 g a.i./ha) was 1.7%, the “% GR (plant growth reduction of the shoot)” value (Corn ECO5133; 100 g a.i./ha) was 6.7% and the “% GR (plant growth reduction of the shoot)” value (Corn LG22.65; 25 g a.i./ha) was 0.0%. For the same molecule, the “% GR (plant growth reduction of the shoot)” value (Corn LG22.65; 50 g a.i./ha) was 3.3%, the “% GR (plant growth reduction of the shoot)” value (Corn LG22.65; 100 g a.i./ha) was 11.7% and the “% GR (plant growth reduction of the shoot)” value (Corn Maeva; 25 g a.i./ha) was 1.7%. For the same molecule, the “% GR (plant growth reduction of the shoot)” value (Corn Maeva; 50 g a.i./ha) was 3.3%, the “% GR (plant growth reduction of the shoot)” value (Corn Maeva; 100 g a.i./ha) was 6.7% and the “% GR (plant growth reduction of the shoot)” value (Corn Ronaldinio; 25 g a.i./ha) was 0.0%. The “% GR (plant growth reduction of the shoot)” value (Corn Ronaldinio; 50 g a.i./ha) was 0.0% and the “% GR (plant growth reduction of the shoot)” value (Corn Ronaldinio; 100 g a.i./ha) was 3.3%.

With `CCC(=O)C1=C([O-])CC(C(=O)[O-])CC1=O.[Ca+2]` (stereo not shown) [B, Prohexadione-Ca] the “% GR (plant growth reduction of the shoot)” value (Spring-barley Pasadena; 25 g a.i./ha) was 0.0%, the “% GR (plant growth reduction of the shoot)” value (Spring-barley Pasadena; 50 g a.i./ha) was 1.7% and the “% GR (plant growth reduction of the shoot)” value (Spring-wheat Lona; 25 g a.i./ha) was 0.0%. The “% GR (plant growth reduction of the shoot)” value (Spring-wheat Lona; 50 g a.i./ha) was 3.3%, the “% GR (plant growth reduction of the shoot)” value (Winter-barley Hasso; 25 g a.i./ha) was 0.0% and the “% GR (plant growth reduction of the shoot)” value (Winter-barley Hasso; 50 g a.i./ha) was 5.0%. The “% GR (plant growth reduction of the shoot)” value (Winter-wheat Arina; 25 g a.i./ha) was 0.0%, the “% GR (plant growth reduction of the shoot)” value (Winter-wheat Arina; 50 g a.i./ha) was 3.3% and the “% GR (plant growth reduction of the shoot)” value (Corn ECO5133; 25 g a.i./ha) was 0.0%. The “% GR (plant growth reduction of the shoot)” value (Corn ECO5133; 50 g a.i./ha) was 0.0%, the “% GR (plant growth reduction of the shoot)” value (Corn ECO5133; 100 g a.i./ha) was 0.0% and the “% GR (plant growth reduction of the shoot)” value (Corn LG22.65; 25 g a.i./ha) was 0.0%. The “% GR (plant growth reduction of the shoot)” value (Corn LG22.65; 50 g a.i./ha) was 1.7%, the “% GR (plant growth reduction of the shoot)” value (Corn LG22.65; 100 g a.i./ha) was 13.3% and the “% GR (plant growth reduction of the shoot)” value (Corn Maeva; 25 g a.i./ha) was 1.7%. The “% GR (plant growth reduction of the shoot)” value (Corn Maeva; 50 g a.i./ha) was 5.0%, the “% GR (plant growth reduction of the shoot)” value (Corn Maeva; 100 g a.i./ha) was 18.3% and the “% GR (plant growth reduction of the shoot)” value (Corn Ronaldinio; 25 g a.i./ha) was 0.0%. The “% GR (plant growth reduction of the shoot)” value (Corn Ronaldinio; 50 g a.i./ha) was 0.0% and the “% GR (plant growth reduction of the shoot)” value (Corn Ronaldinio; 100 g a.i./ha) was 1.7%.
